Measured values from article PMC11474028, “Lipopeptide antibiotics disrupt interactions of undecaprenyl phosphate with UptA” (Proceedings of the National Academy of Sciences of the …, 2024).
“Also recorded” adds a separate entry of the source.

Assays:
[1] = system: UptA R112A/R118A; assay: Native MS of C55-P binding to UptA double mutant R112A/R118A; set-up: species or system Bacillus subtilis; details: 5 µM protein, 10 µM C55-P, pH 8.02, 0.05% LDAO, 200 mM ammonium acetate, 100 V; mean of three biological replicates
[2] = biological target: UptA (Bacillus subtilis, UniProt O31823); assay: Native MS competition of C55-P and phospholipids for UptA binding; details: 4 µM UptA and 10 µM DOPG or DOPE, increasing C55-P up to 20 µM, on ice 15 min
Procedure: To investigate whether or not C55-P can outcompete phospholipids in binding to UptA, we incubated solutions containing UptA-DOPG with increasing concentrations of C55-P. Spectra were recorded after aliquots of the solution were equilibrated on ice for 15 min. […] We therefore hypothesised that phospholipids should be unable to outcompete C55-P bound to UptA. To test this hypothesis, we incubated UptA with C55-P and then equilibrated aliquots with an increasing concentration of DOPG. […]
The chloroform layer containing the total lipids was recovered into a clean glass vial, and the organic solvent was evaporated in a SpeedVac for 16 h. Lipid film was resuspended 200 mM ammonium acetate, 0.05% LDAO (pH 8.0) to ~0.5 mg/mL for the binding experiments.
Sample preparation for native MS
Before measurements, the protein was buffer-exchanged into 0.05% LDAO, 200 mM ammonium acetate (“MS buffer”) at the desired pH using a centrifugal buffer exchange device (Micro Bio -Spin 6, Bio-Rad). Stock solutions of lipids were prepared from chloroform/methanol solution by evaporating aliquots of known volume in a SpeedVac. After drying, the lipid films were weighed and resuspended to a final concentration of 0.5 mM in 200 mM ammonium acetate (pH8) and 0.05% LDAO by vertexing. Stock solutions of 0.5 mM amphomycin, aspartocin D, daptomycin and bacitracin, were made in the same buffer. All experiments were repeated three times from newly prepared stock solutions.
About 3 μL protein aliquot was transferred into a gold-coated borosilicate capillary (Harvard Apparatus) and was mounted on the nano ESI source of a Q-Exactive hybrid quadrupole-Orbitrap mass spectrometer (Thermo Fisher Scientific, Bremen, Germany). The instrument settings were 1.2 kV capillary voltage, S-lens RF 200%, argon UHV pressure 3.3 × 10−10 mbar, the capillary temperature was set to 200 °C, and resolution of the instrument was set to 17,500 at a transie nt time of 64 ms. […] The resulting fragments were detected in the Orbitrap (R = 280,000 @ m/z 200), averaging ~500 transients to maximise the signal-to-noise ratio. […]

Sequence of UptA (O31823 whole entry): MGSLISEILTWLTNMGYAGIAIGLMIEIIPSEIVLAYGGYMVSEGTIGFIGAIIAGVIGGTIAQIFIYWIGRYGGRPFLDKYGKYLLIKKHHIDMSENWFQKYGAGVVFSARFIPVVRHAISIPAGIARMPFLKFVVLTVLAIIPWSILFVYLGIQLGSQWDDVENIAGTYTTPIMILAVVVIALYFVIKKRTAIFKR

SMILES: CC(C)=CCC/C(C)=C/CC/C(C)=C/CC/C(C)=C\CC/C(C)=C\CC/C(C)=C\CC/C(C)=C\CC/C(C)=C\CC/C(C)=C\CC/C(C)=C\CC/C(C)=C\COP(=O)(O)O [C55-P, undecaprenyl phosphate]
- reduction in C55-P binding, R112A/R118A [1]: 43%
- displacement of phospholipid from UptA by C55-P (in words) [2]: C55-P has displaced most of DOPG from UptA; also recorded: C55-P effectively outcompete DOPE for UptA binding
